Experimental data reported in patent publication US7189736B2, “Prodrugs of imidazopyridine derivatives” (Altana Pharma AG, priority 2000, dated 2007).

Tested on: acid secretion of the perfused rat stomach stimulated by pentagastrin
Test: Secretion-inhibiting action on perfused rat stomach (pentagastrin-stimulated acid secretion)
Assay type: in vivo
Details: Rattus norvegicus, iv, anesthetized CD rats, female, dose 3 μmol/kg i.v.
From the text: Testing of the Secretion-inhibiting Action on Perfused Rat Stomach
In table A below, the influence of the compounds according to the invention after intravenous administration is shown on the acid secretion of the perfused rat stomach stimulated by pentagastrin.
The abdomen of anesthetized rats (CD rats, female, 200–250 g; 1.5 g/kg of i.m. urethane) was opened after tracheotomy by a median upper abdominal incision and a PVC catheter was fixed transorally in the esophagus and a further one via the pylorus such that the ends of the tubing just still projected into the gastric lumen. The catheter leading from the pylorus led outwards via a side opening in the right abdominal wall.
After thorough rinsing (about 50–100 ml), a continuous flow of warm physiological NaCl solution (0.5 ml/min, pH 6.8–6.9; Braun-Unita I) was continuously passed through the stomach at 37° C. The pH in the effluent, in each case collected at an interval of 15 minutes, was determined (pH meter 632, glass electrode EA 147; φ 5 mm, Metrohm) and the secreted HCl was determined by titration with a freshly prepared 0.01N NaOH solution to pH 7 (Dosimat 665 Metrohm).
Gastric secretion was stimulated by continuous infusion of 1 μg/kg (=1.65 ml/h) of i.v. pentagastrin (left femoral vein) about 30 min after the end of the operation (i.e. after determination of 2 preliminary fractions). The substances to be tested were administered intravenously in 1 ml/kg of fluid volume 60 min after the start of the pentagastrin continuous infusion.
The body temperature of the animals was kept at a constant 37.8–38° C. by means of infrared irradiation and heating pads (automatic, step-free control via a rectal temperature sensor).

`COCCO[C@H]1c2ccn3c(C)c(C)nc3c2N[C@H](c2ccccc2)[C@H]1OC(C)=O` [Example 1, (7S,8R,9R)-8-Acetoxy-7-(2-methoxyethoxy)-2,3-dimethyl-9-phenyl-7,8,9,10-tetra-hydroimidazo[1,2-h][1,7]naphthyridine] and `CO[C@@H]1c2ccn3c(C)c(C)nc3c2N[C@H](c2ccccc2)[C@H]1OC(C)=O` [Example 3, (7R,8R,9R)-8-Acetoxy-7-methoxy-2,3-dimethyl-9-phenyl-7,8,9,10-tetrahydro-imidazo[1,2-h][1,7]naphthyridine] are the same in inhibition at 3 µmol/kg: 100% for the first, 100% for the second.

Same assay, conditions: anesthetized CD rats, female, dose 3 μmol/kg i.v.

In the case of `COCCO[C@@H]1c2ccn3c(C)c(C)nc3c2N[C@H](c2ccccc2)[C@H]1OC(C)=O` [Example 2, (7R,8R,9R)-8-Acetoxy-7-(2-methoxyethoxy)-2,3-dimethyl-9-phenyl-7,8,9,1,0-tetra-hydroimidazo[1,2-h][1,7]naphthyridine], the “Inhibition of acid secretion (%)” value is reported as 100%.

Tested on: not given
Test: not given
Details: not given

First: CO[C@@H]1c2ccn3c(C)c(C)nc3c2N[C@H](c2ccccc2)[C@H]1OC(C)=O [Example 3, (7R,8R,9R)-8-Acetoxy-7-methoxy-2,3-dimethyl-9-phenyl-7,8,9,10-tetrahydro-imidazo[1,2-h][1,7]naphthyridine]
Second: CCO[C@@H]1c2ccn3c(C)c(C)nc3c2N[C@H](c2ccccc2)[C@H]1OC(C)=O [Example 4, (7R,8R,9R)8-Acetoxy-7-ethoxy-2,3-dimethyl-9-phenyl-7,8,9,10-tetrahydroimidazo-[1,2-h][1,7]naphthyridine]
The melting point of the first is higher: 197 to 199 °C for the first, 182 to 184 °C for the second.

First: CCC(=O)O[C@@H]1[C@@H](c2ccccc2)Nc2c(ccn3c(C)c(C)nc23)[C@H]1OCCOC [Example 5, (7R,8R,9R)-7-(2-Methoxyethoxy)-2,3-dimethyl-9-phenyl-8-propionyloxy-7,8,9,10-tetrahydroimidazo[1,2-h][1,7]naphthyridine]
Second: COCCO[C@@H]1c2ccn3c(C)c(C)nc3c2N[C@H](c2ccccc2)[C@H]1OC(=O)CN(C)C [Example 20, (7R,8R,9R)-7-(2-Methoxyethoxy)-2,3-dimethyl-8-(N,N-dimethylaminomethyl-carbonyloxy)-9-phenyl-7,8,9,10-tetrahydroimidazo[1,2-h][1,7]naphthyridine]
The melting point of the first is lower: 106 to 107 °C for the first, 114 to 115 °C for the second.

Compared with `COCCO[C@H]1c2ccn3c(C)c(C)nc3c2N[C@H](c2ccccc2)[C@H]1OC(=O)c1ccccc1` [Example 7, (7S,8R,9R)-8-Benzoyloxy-7-(2-methoxyethoxy)-2,3-dimethyl-9-phenyl-7,8,9,10tetrahydroimidazo[1,2-h][1,7]naphthyridine], `CO[C@@H]1c2ccn3c(C)c(C)nc3c2N[C@H](c2ccccc2)[C@H]1OC(=O)c1ccccc1` [Example 10, (7R,8R,9R)-8-Benzoyloxy-7-methoxy-2,3-dimethyl-9-phenyl-7,8,9,10-tetrahydro-imidazo[1,2-h][1,7]naphthyridine] is higher in melting point: 78 to 80 °C for the first, 82 to 84 °C for the second.

First: COCCO[C@@H]1c2ccn3c(C)c(C)nc3c2N[C@H](c2ccccc2)[C@H]1OC(=O)OC [Example 8, (7R,8R,9R)-8-Methoxycarbonyloxy-7-(2-methoxyethoxy)-2,3-dimethyl-9-phenyl-7,8,9,10-tetrahydroimidazo[1,2-h][1,7]naphthyridine]
Second: COC(=O)O[C@@H]1[C@@H](c2ccccc2)Nc2c(ccn3c(C)c(C)nc23)[C@H]1OC [Example 43, (7R,8R,9R)7-Methoxy-8-methoxycarbonyloxy-2,3-dimethyl-9-phenyl 7,8,9,10-tetrahydroimidazo[1,2-h][1,7]naphthyridine]
The melting point of the first is lower: 176 to 177 °C for the first, 178 to 179 °C for the second.

First: CO[C@H]1c2ccn3c(C)c(C)nc3c2N[C@H](c2ccccc2)[C@H]1OC(=O)c1ccccc1 [Example 11, (7S,8R,9R)-8-Benzoyloxy-7-methoxy-2,3-dimethyl-9-phenyl-7,8,9,10-tetrahydro-imidazo[1,2-h][1,7]naphthyridine]
Second: CO[C@@H]1c2ccn3c(C)c(C)nc3c2N[C@H](c2ccccc2)[C@H]1OC(=O)c1ccccc1 [Example 47, (7R,8R,9R)-8-Benzoyloxy-2,3-dimethyl-7-methoxy-9-phenyl-7,8,9,10-tetrahydro-imidazo[1,2-h][1,7]naphthyridine]
The melting point of the first is lower: 78 to 80 °C for the first, 92 to 93 °C for the second.

First: COCCO[C@@H]1c2ccn3c(C)c(C)nc3c2N[C@H](c2ccccc2)[C@H]1OC(=O)c1ccc([N+](=O)[O-])cc1 [Example 12, (7R,8R,9R)-7-(2-Methoxyethoxy)-2,3-dimethyl-8-(4-nitrobenzoyloxy)-9-phenyl-7,8,9,10-tetrahydroimidazo[1,2-h][1,7]naphthyridine]
Second: COCCO[C@H]1c2ccn3c(C)c(C)nc3c2N[C@H](c2ccccc2)[C@H]1OC(=O)c1ccc(OC)cc1 [Example 18, (7S,8R,9R)-7-(2-Methoxyethoxy)-2,3-dimethyl-8-(4-methoxybenzoyloxy)-9-phenyl-7,8,9,10-tetrahydroimidazo[1,2-h][1,7]naphthyridine]
The melting point of the first is higher: 133 to 134 °C for the first, 82 to 83 °C for the second.

Compared with `CO[C@@H]1c2ccn3c(C)c(C)nc3c2N[C@H](c2ccccc2)[C@H]1OC(=O)c1cccc([N+](=O)[O-])c1` [Example 17, (7R,8R,9R)-7-Methoxy-2,3-dimethyl-8-(3-nitrobenzoyloxy)-9-phenyl-7,8,9,10-tetra-hydroimidazo[1,2-h][1,7]naphthyridine], `COC(=O)O[C@@H]1[C@@H](c2ccccc2)Nc2c(ccn3c(C)c(C)nc23)[C@@H]1OC` [Example 44, (7S,8R,9R)7-Methoxy-8-methoxycarbonyloxy-2,3-dimethyl-9-phenyl 7,8,9,10-tetrahydroimidazo[1,2-h][1,7]naphthyridine] is higher in melting point: 80 to 84 °C for the first, 90 to 91 °C for the second.

First: COCCO[C@@H]1c2ccn3c(C)c(C)nc3c2N[C@H](c2ccccc2)[C@H]1OC(=O)c1ccc(OC)cc1 [Example 19, (7R,8R,9R)-7-(2-Methoxyethoxy)-2,3-dimethyl-8-(4-methoxybenzoyloxy)-9-phenyl-7,8,9,10-tetrahydroimidazo[1,2-h][1,7]naphthyridine]
Second: COCCO[C@H]1c2ccn3c(C)c(C)nc3c2N[C@H](c2ccccc2)[C@H]1OC(=O)CN(C)C [Example 21, (7S,8R,9R)-7-(2-Methoxyethoxy)-2,3-dimethyl-8-(N,N-dimethylaminomethyl-carbonyloxy)-9-phenyl-7,8,9,10-tetrahydroimidazo[1,2-h][1,7]naphthyridine]
The melting point of the first is lower: 150 to 151 °C for the first, 206 to 207 °C for the second.

First: CCN(CC)C(=O)O[C@@H]1[C@@H](c2ccccc2)Nc2c(ccn3c(C)c(C)nc23)[C@@H]1OCCOC [Example 22, (7S,8R,9R)-7-(2-Methoxyethoxy)-8-(N,N-diethylaminocarbonyloxy)-2,3-dimethyl-9-phenyl-7,8,9,10-tetrahydroimidazo[1,2-h][1,7]naphthyridine]
Second: CCN(CC)C(=O)O[C@@H]1[C@@H](c2ccccc2)Nc2c(ccn3c(C)c(C)nc23)[C@H]1OC [Example 41, (7R,8R,9R)8-(N,N-Diethylaminocarbonyloxy)-2,3-dimethyl-7-methoxy-9-phenyl 7,8,9,10-tetrahydroimidazo[1,2-h][1,7]naphthyridine]
The melting point of the first is lower: 50 to 52 °C for the first, 123 to 124 °C for the second.

Compared with `COCCO[C@@H]1c2ccn3c(C)c(C)nc3c2N[C@H](c2ccccc2)[C@H]1OC(=O)OC1CC(C)CCC1C(C)C` (stereo partly drawn) [Example 26, (7R,8R,9R)-8-[(+)-Menthyloxycarbonyloxy]-7-(2-methoxyethoxy)-2,3-dimethyl-9-phenyl-7,8,9,10-tetrahydroimidazo[1,2-h][1,7]naphthyridine], `COCCO[C@H]1c2ccn3c(C)c(C)nc3c2N[C@H](c2ccccc2)[C@H]1OC(=O)OC1CC(C)CCC1C(C)C` (stereo partly drawn) [Example 27, (7S,8R,9R)-8-[(+)-Menthyloxycarbonyloxy]-7-(2-methoxyethoxy)-2,3-dimethyl-9-phenyl-7,8,9,10-tetrahydroimidazo[1,2-h][1,7]naphthyridine] is lower in melting point: 127 to 129 °C for the first, 63 to 65 °C for the second.

Compared with `COCC(=O)O[C@@H]1[C@@H](c2ccccc2)Nc2c(ccn3c(C)c(C)nc23)[C@@H]1OC` [Example 40, (7S,8R,9R)-2,3-Dimethyl-7-methoxy-8-methoxyacetyloxy-9-phenyl-7,8,9,10-tetrahydroimidazo[1,2-h][1,7]naphthyridine], `CCN(CC)C(=O)O[C@@H]1[C@@H](c2ccccc2)Nc2c(ccn3c(C)c(C)nc23)[C@@H]1OC` [Example 42, (7S,8R,9R)8-(N,N-Diethylaminocarbonyloxy)-2,3-dimethyl-7-methoxy-9-phenyl 7,8,9,10-tetrahydroimidazo[1,2-h][1,7]naphthyridine] is higher in melting point: 73 to 75 °C for the first, 97 to 98 °C for the second.

`CO[C@@H]1c2ccn3c(C)c(C)nc3c2N[C@H](c2ccccc2)[C@H]1OC=O` [Example 45, (7R,8R,9R)-2,3-Dimethyl-8-formyloxy-7-methoxy-9-phenyl-7,8,9,10-tetrahydro-imidazo[1,2-h][1,7]naphthyridine] gave a melting point of 152 to 153 °C.
